Results published in article PMC8480901 (PLoS ONE, 2021).
“And” between values parts separate entries of the source, which are not always exact repeats. Identical values can stand only once. “Also recorded” adds a separate entry of the source.

System: LPS-induced lung neutrophilia
Assay: LPS-induced lung neutrophilia: total and neutrophil cell counts in BALF
Format: in vivo, BALB/c mice
Settings: for total cell and neutrophil recruitment to the lungs (measured in BALF): 10, 30, and 100 mg/kg SC 30 min before intranasal LPS, 4 hours postchallenge, vs vehicle control; for Neutrophils in BALF: % reduction / Total cells/white blood cells in BALF: % reduction / Neutrophils in BALF, Mean / Total cells/white blood cells in BALF, Mean / Neutrophils in BALF, individual mice / Total cells/white blood cells in BALF, individual mice: LPS; for Neutrophils in BALF, Mean / Total cells/white blood cells in BALF, Mean / Neutrophils in BALF, individual mice / Total cells/white blood cells in BALF, individual mice: BALF 4 h after LPS
Experimental: Six-week-old male BALB/c mice (Charles River, Calco, Italy) were singly housed in a temperature-controlled (22°C±2°C) environment with a 12:12-hour light:dark cycle and free access to food and water. Mice were given ≥7 days for acclimation before all procedures. […] One day before the start of experimental procedures, all animals were randomized into 6 groups (n = 8/group). Animal group assignment was not blinded.
LPS lyophilized powder (2 mg; Sigma-Aldrich Chemie GmbH, Munich, Germany) from Escherichia coli (O111:B4) was dissolved in 10 mL cold saline (0.9%; Pliva, Zagreb, Croatia), vortexed, and further diluted by mixing 2 mL of this solution with 2 mL saline to reach a final concentration of 5 μg LPS/50 μL saline. […] Ketamine hydrochloride (Narketan 10) was acquired from Vetoquinol (Bern, Switzerland), and xylazine hydrochloride (Rompun, 2%) was acquired from Bayer (Leverkusen, Germany).
To induce pulmonary neutrophilia, mice in the control group received intranasal (IN) 50 μL saline, and all other animals received 5 μg LPS/50 μL saline IN per mouse.
Tracheostomy was performed, and a Buster cat catheter (1.0 × 130 mm; Kruuse, Langeskov, Denmark), shortened to 3 cm, was clamped into the trachea. The lungs were washed 3 times with cold phosphate-buffered saline (PBS; Sigma-Aldrich Chemie GmbH) in a total volume of 1 mL (0.4, 0.3, and 0.3 mL). The collected BALF samples were centrifuged (1303×g, 5 min, 4°C), and resulting cell pellets were each resuspended in 600 μL PBS. Samples were immediately analyzed for total and differential neutrophil cell counts via automated hematology analyzer (XT-2000iV; Sysmex, Kobe, Japan).
Differences between treated versus vehicle groups were determined using the Mann-Whitney test and were considered statistically significant when P<0.05. Outliers in the analysis of cytokine and chemokine concentrations were identified using the Grubbs test. No criteria were set for inclusion/exclusion of animals during the experiment or data points during the analysis.

[1] = Experiment 1, 10 mg/kg SC, listed as Azi, 10 mg/kg
[2] = Experiment 1, 30 mg/kg SC, listed as Azi, 30 mg/kg
[3] = Experiment 1, 100 mg/kg SC, listed as Azi, 100 mg/kg
[4] = Experiment 1, 1 mg/kg (IP), 1 mg/kg
[5] = Experiment 2, 0.5 mg/kg (PO), 0.5 mg/kg
[6] = Experiment 1, 10 mg/kg SC, listed as Lef, 10 mg/kg
[7] = Experiment 1, 30 mg/kg SC, listed as Lef, 30 mg/kg
[8] = Experiment 1, 100 mg/kg SC, listed as Lef, 100 mg/kg
[9] = Experiment 2, 35 mg/kg SC, listed as Lef, 35 mg/kg
[10] = Experiment 2, 70 mg/kg SC, listed as Lef, 70 mg/kg
[11] = Experiment 2, 140 mg/kg SC, listed as Lef, 140 mg/kg

CC[C@H]1OC(=O)[C@H](C)[C@@H](O[C@H]2C[C@@](C)(OC)[C@@H](O)[C@H](C)O2)[C@H](C)[C@@H](O[C@@H]2O[C@H](C)C[C@H](N(C)C)[C@H]2O)[C@](C)(O)C[C@@H](C)CN(C)[C@H](C)[C@@H](O)[C@]1(C)O [Azithromycin]
total cell and neutrophil recruitment to the lungs (measured in BALF): significant dose-dependent reductions | Neutrophils in BALF: % reduction (Experiment 1, 10 mg/kg SC): 42% | Total cells/white blood cells in BALF: % reduction (Experiment 1, 10 mg/kg SC): 68% | Neutrophils in BALF, Mean (Experiment 1, 10 mg/kg SC): 3e+08 L⁻¹ | Total cells/white blood cells in BALF, Mean (Experiment 1, 10 mg/kg SC): 4.4e+08 L⁻¹ | Neutrophils in BALF, individual mice [1]: 3.8e+08 L⁻¹ and 3.6e+08 L⁻¹ and 3e+08 L⁻¹ and 2.9e+08 L⁻¹ and 2.7e+08 L⁻¹ and 8e+07 L⁻¹ and 3.4e+08 L⁻¹ | Total cells/white blood cells in BALF, individual mice [1]: 1.5e+08 L⁻¹ and 4.9e+08 L⁻¹ and 5.5e+08 L⁻¹ and 6.2e+08 L⁻¹ and 3.6e+08 L⁻¹ and 5.1e+08 L⁻¹ and 3.8e+08 L⁻¹ | Neutrophils in BALF: % reduction (Experiment 1, 30 mg/kg SC): 45% | Total cells/white blood cells in BALF: % reduction (Experiment 1, 30 mg/kg SC): 71% | Neutrophils in BALF, Mean (Experiment 1, 30 mg/kg SC): 2.9e+08 L⁻¹ | Total cells/white blood cells in BALF, Mean (Experiment 1, 30 mg/kg SC): 4.4e+08 L⁻¹ | Neutrophils in BALF, individual mice [2]: 2.5e+08 L⁻¹ and 5.9e+08 L⁻¹ and 2.3e+08 L⁻¹ and 2.1e+08 L⁻¹ and 4.6e+08 L⁻¹ and 1.7e+08 L⁻¹ and 2e+08 L⁻¹ | Total cells/white blood cells in BALF, individual mice [2]: 2.5e+08 L⁻¹ and 3.1e+08 L⁻¹ and 4.1e+08 L⁻¹ and 8.2e+08 L⁻¹ and 4.6e+08 L⁻¹ and 3.8e+08 L⁻¹ and 5.6e+08 L⁻¹ | Neutrophils in BALF: % reduction (Experiment 1, 100 mg/kg SC): 57% | Total cells/white blood cells in BALF: % reduction (Experiment 1, 100 mg/kg SC): 95% | Neutrophils in BALF, Mean (Experiment 1, 100 mg/kg SC): 2.3e+08 L⁻¹ | Total cells/white blood cells in BALF, Mean (Experiment 1, 100 mg/kg SC): 3.7e+08 L⁻¹ | Neutrophils in BALF, individual mice [3]: 3.6e+08 L⁻¹ and 2.2e+08 L⁻¹ and 1.7e+08 L⁻¹ and 1.3e+08 L⁻¹ and 3.4e+08 L⁻¹ and 2.5e+08 L⁻¹ and 1.5e+08 L⁻¹ and 1.9e+08 L⁻¹ | Total cells/white blood cells in BALF, individual mice [3]: 2.8e+08 L⁻¹ and 3.1e+08 L⁻¹ and 4.9e+08 L⁻¹ and 3.6e+08 L⁻¹ and 4.4e+08 L⁻¹ and 2.2e+08 L⁻¹ and 5.2e+08 L⁻¹ and 3.3e+08 L⁻¹

C[C@@H]1C[C@H]2[C@@H]3CCC4=CC(=O)C=C[C@]4(C)[C@@]3(F)[C@@H](O)C[C@]2(C)[C@@]1(O)C(=O)CO [Dexamethasone]
Neutrophils in BALF: % reduction (Experiment 1, 1 mg/kg (IP)): 47% | Total cells/white blood cells in BALF: % reduction (Experiment 1, 1 mg/kg (IP)): 75% | Neutrophils in BALF, Mean (Experiment 1, 1 mg/kg (IP)): 2.8e+08 L⁻¹ | Total cells/white blood cells in BALF, Mean (Experiment 1, 1 mg/kg (IP)): 4.3e+08 L⁻¹ | Neutrophils in BALF, individual mice [4]: 2.5e+08 L⁻¹ and 1.2e+08 L⁻¹ and 2.9e+08 L⁻¹ and 2.6e+08 L⁻¹ and 3e+08 L⁻¹ and 3.9e+08 L⁻¹ and 3.1e+08 L⁻¹ | Total cells/white blood cells in BALF, individual mice [4]: 3.9e+08 L⁻¹ and 3.8e+08 L⁻¹ and 4.1e+08 L⁻¹ and 2.3e+08 L⁻¹ and 4.5e+08 L⁻¹ and 5.2e+08 L⁻¹ and 6.3e+08 L⁻¹ | Neutrophils in BALF: % reduction (Experiment 2, 0.5 mg/kg (PO)): 61% | Total cells/white blood cells in BALF: % reduction (Experiment 2, 0.5 mg/kg (PO)): 78% | Neutrophils in BALF, Mean (Experiment 2, 0.5 mg/kg (PO)): 2.4e+08 L⁻¹ | Total cells/white blood cells in BALF, Mean (Experiment 2, 0.5 mg/kg (PO)): 5e+08 L⁻¹ | Neutrophils in BALF, individual mice [5]: 2.5e+08 L⁻¹ and 2e+08 L⁻¹ and 3.4e+08 L⁻¹ and 1.9e+08 L⁻¹ and 2.3e+08 L⁻¹ and 3.1e+08 L⁻¹ and 1.7e+08 L⁻¹ | Total cells/white blood cells in BALF, individual mice [5]: 7e+08 L⁻¹ and 2.9e+08 L⁻¹ and 5.5e+08 L⁻¹ and 4.4e+08 L⁻¹ and 7.7e+08 L⁻¹ and 3.6e+08 L⁻¹

C=C[C@]1(C)C[C@@H](OC(=O)CS[C@@H]2CC[C@@H](N)C[C@H]2O)[C@]2(C)[C@H](C)CC[C@]3(CCC(=O)[C@H]32)[C@@H](C)[C@@H]1O [Lefamulin]
total cell and neutrophil recruitment to the lungs (measured in BALF): dose-dependent reduction; also recorded: almost complete reduction | Neutrophils in BALF: % reduction (Experiment 1, 10 mg/kg SC): 37% | Total cells/white blood cells in BALF: % reduction (Experiment 1, 10 mg/kg SC): 50% | Neutrophils in BALF, Mean (Experiment 1, 10 mg/kg SC): 3.3e+08 L⁻¹ | Total cells/white blood cells in BALF, Mean (Experiment 1, 10 mg/kg SC): 5e+08 L⁻¹ | Neutrophils in BALF, individual mice [6]: 4.7e+08 L⁻¹ and 2.2e+08 L⁻¹ and 1.9e+08 L⁻¹ and 3.7e+08 L⁻¹ and 3.1e+08 L⁻¹ and 1e+08 L⁻¹ and 4.5e+08 L⁻¹ and 4.9e+08 L⁻¹ | Total cells/white blood cells in BALF, individual mice [6]: 6.6e+08 L⁻¹ and 5.9e+08 L⁻¹ and 6.1e+08 L⁻¹ and 3e+08 L⁻¹ and 5.1e+08 L⁻¹ and 6.3e+08 L⁻¹ and 5e+08 L⁻¹ and 1.7e+08 L⁻¹ | Neutrophils in BALF: % reduction (Experiment 1, 30 mg/kg SC): 59% | Total cells/white blood cells in BALF: % reduction (Experiment 1, 30 mg/kg SC): 78% | Neutrophils in BALF, Mean (Experiment 1, 30 mg/kg SC): 2.2e+08 L⁻¹ | Total cells/white blood cells in BALF, Mean (Experiment 1, 30 mg/kg SC): 4.2e+08 L⁻¹ | Neutrophils in BALF, individual mice [7]: 2.1e+08 L⁻¹ and 3.8e+08 L⁻¹ and 1.2e+08 L⁻¹ and 2.5e+08 L⁻¹ and 1.7e+08 L⁻¹ and 2.3e+08 L⁻¹ and 1.6e+08 L⁻¹ | Total cells/white blood cells in BALF, individual mice [7]: 2.7e+08 L⁻¹ and 3.7e+08 L⁻¹ and 3.5e+08 L⁻¹ and 6.6e+08 L⁻¹ and 2.6e+08 L⁻¹ and 3.9e+08 L⁻¹ and 3.8e+08 L⁻¹ | Neutrophils in BALF: % reduction (Experiment 1, 100 mg/kg SC): 70% | Total cells/white blood cells in BALF: % reduction (Experiment 1, 100 mg/kg SC): 100% | Neutrophils in BALF, Mean (Experiment 1, 100 mg/kg SC): 1.6e+08 L⁻¹ | Total cells/white blood cells in BALF, Mean (Experiment 1, 100 mg/kg SC): 3.5e+08 L⁻¹ | Neutrophils in BALF, individual mice [8]: 1.4e+08 L⁻¹ and 1.8e+08 L⁻¹ and 1.2e+08 L⁻¹ and 1.3e+08 L⁻¹ and 2.8e+08 L⁻¹ and 1.7e+08 L⁻¹ | Total cells/white blood cells in BALF, individual mice [8]: 3.3e+08 L⁻¹ and 2.4e+08 L⁻¹ and 3.1e+08 L⁻¹ and 3.4e+08 L⁻¹ and 2.3e+08 L⁻¹ and 3.9e+08 L⁻¹ and 6.6e+08 L⁻¹ | Neutrophils in BALF: % reduction (Experiment 2, 35 mg/kg SC): 64% | Total cells/white blood cells in BALF: % reduction (Experiment 2, 35 mg/kg SC): 69% | Neutrophils in BALF, Mean (Experiment 2, 35 mg/kg SC): 2.2e+08 L⁻¹ | Total cells/white blood cells in BALF, Mean (Experiment 2, 35 mg/kg SC): 5.5e+08 L⁻¹ | Neutrophils in BALF, individual mice [9]: 2e+08 L⁻¹ and 1.6e+08 L⁻¹ and 2.4e+08 L⁻¹ and 2.2e+08 L⁻¹ and 3.4e+08 L⁻¹ and 1.9e+08 L⁻¹ and 3.1e+08 L⁻¹ and 1.2e+08 L⁻¹ | Total cells/white blood cells in BALF, individual mice [9]: 9.1e+08 L⁻¹ and 2e+08 L⁻¹ and 7e+08 L⁻¹ and 4.4e+08 L⁻¹ and 4.6e+08 L⁻¹ and 3.7e+08 L⁻¹ and 7.3e+08 L⁻¹ and 5.5e+08 L⁻¹ | Neutrophils in BALF: % reduction (Experiment 2, 70 mg/kg SC): 77% | Total cells/white blood cells in BALF: % reduction (Experiment 2, 70 mg/kg SC): 91% | Neutrophils in BALF, Mean (Experiment 2, 70 mg/kg SC): 1.5e+08 L⁻¹ | Total cells/white blood cells in BALF, Mean (Experiment 2, 70 mg/kg SC): 4.3e+08 L⁻¹ | Neutrophils in BALF, individual mice [10]: 1.8e+08 L⁻¹ and 1.7e+08 L⁻¹ and 1.1e+08 L⁻¹ and 1e+08 L⁻¹ and 2.1e+08 L⁻¹ and 1.2e+08 L⁻¹ and 9e+07 L⁻¹ | Total cells/white blood cells in BALF, individual mice [10]: 4.6e+08 L⁻¹ and 2.1e+08 L⁻¹ and 4.3e+08 L⁻¹ and 4.4e+08 L⁻¹ and 3.3e+08 L⁻¹ and 3e+08 L⁻¹ and 5.8e+08 L⁻¹ and 6.7e+08 L⁻¹ | Neutrophils in BALF: % reduction (Experiment 2, 140 mg/kg SC): 77% | Total cells/white blood cells in BALF: % reduction (Experiment 2, 140 mg/kg SC): 107% | Neutrophils in BALF, Mean (Experiment 2, 140 mg/kg SC): 1.5e+08 L⁻¹ | Total cells/white blood cells in BALF, Mean (Experiment 2, 140 mg/kg SC): 3.4e+08 L⁻¹ | Neutrophils in BALF, individual mice [11]: 1.6e+08 L⁻¹ and 1.4e+08 L⁻¹ and 1.2e+08 L⁻¹ and 1.7e+08 L⁻¹ and 9e+07 L⁻¹ and 2e+08 L⁻¹ | Total cells/white blood cells in BALF, individual mice [11]: 4.6e+08 L⁻¹ and 3.9e+08 L⁻¹ and 2.6e+08 L⁻¹ and 2.9e+08 L⁻¹ and 3.6e+08 L⁻¹ and 3.3e+08 L⁻¹ and 4.4e+08 L⁻¹ and 2e+08 L⁻¹
